Results taken from patent US7033580B2, “Hair-growing agent” (priority 1996, dated 2006).
pIC50: −log10 of the molar value. Like-named read-outs stand apart in the source and are kept apart here.

What was measured:
[1] = test system: Mouse hair-follicle cells; assay: Hair growth promoting effect in mouse hair-follicle cell culture (Neutral Red); assay type: cell-based; details: for Relative Degree of Cell Growth, vehicled on the degree of cell growth of 100 in Control: 5 days
Description: Mouse hair-follicle cells were cultivated and collected, according to the modified method of the Tanigai et al's method (see Archives of Dermatological Research, 284, 290–296, 1992) while suitably modifying the method.
That is, the skin was peeled from the back of a 4-day age C3H mouse (bought from Nippon Charles River Co.), and processed with an MEM (Minimum Essential Medium, Eagle) containing 500 units/ml Disperse (produced by Godo Shusei Co.) and 5% FCS, at 4° C. for 16 hours.
The epidermis was removed from said skin sample, and the resulting dermis layer was processed with a DMEM (Dulbecco's Modified Eagle Medium) containing 0.25% collagenase N-2 (produced by Nitta Gelatin Co.) and 10% FCS, at 37° C. for 1 hours, to prepare a dermis suspension.
This dermis suspension was filtrated through a 212-micron nylon mesh (produced by Nippon Rikagaku Kikai KK), and the resulting filtrate was centrifuged at 1,000 rpm for 5 minutes to obtain hair-follicle tissue-containing pellets.
The resulting pellets were suspended in a Ca-Mg-free PBS (Dulbecco's Phosphate-Buffered Saline), using a pipette, and then statically left as it was for 15 minutes, whereby the hair-follicle tissue was precipitated.
The thus-obtained hair-follicle tissue was repeatedly processed for a total of three times according to the same process as above comprising the addition of a Ca-Mg-free PBS, the suspension with a pipette, and the precipitation for 15 minutes.
The hair-follicle tissue thus obtained finally was processed with 0.1% EDTA-0.25% trypsin (produced by Gibco Co.) at 37° C. for 5 minutes, to which was then added a DMEM containing 10% FCS. Thus was prepared herein a hair-follicle tissue cell suspension comprising 3×10^5 cells/ml.
This hair-follicle tissue cell suspension was pipetted into a 24-well collagen-coated plate (produced by Iwaki Glass Co.) in an amount of 1 ml/well, and cultivated at 37° C. in 5% CO2 for 24 hours.
The resulting culture was then subjected to medium exchange with an MCDB153 medium (produced by Kyokuto Pharmaceutical Co.) containing 5 mg/liter insulin from bovine (produced by Sigma Co.), 5 μg/liter mouse EGF (produced by Takara Shuzo Co.), 40 mg/liter bovine pituitary extract (produced by Kyokuto Pharmaceutical Co.), 10 mg/liter human transferrin (produced by Sigma Co.), 0.4 mg/liter hydrocortisone (produced by Sigma Co.), 0.63 μg/liter progesterone (produced by Collaborative Research Co.), 14 mg/liter O-phosphoethanolamine (produced by Sigma Co.), 6.1 mg/liter ethanolamine (produced by Sigma Co.), 50 U/ml penicillin (produced by Wako Co.), 50 μg/ml streptomycin (produced by Wako Co.), and an DMSO solution comprising a PKC inhibitor of the invention (this was added in an amount of 1/100 by volume relative to the medium), and then further cultivated at 37° C. in 5% CO2 for 5 days. During the incubation, the medium was exchanged with a fresh one every other day.
As the control, the cell culture was cultivated in the same manner as above, except that only DMSO of 1/100 by volume relative to the medium was added to the medium in place of the PKC inhibitor-containing DMSO solution.
To determine the degree of cell growth, referred to herein was a known method of using Neutral Red (see Journal of Tissue Culture Method, 9, 1, 7–9, 1984). […]
The absorbance of the extract at 540 nm was measured, from which was obtained the degree of growth of the cells.

protein kinase C (PKC) [2] = assay: PKC-inhibiting activity measuring method (Kikkawa et al.); assay type: biochemical, rat; details: ratio, selectivity PKC over PKA
Description: (§1) (1) Method for Measuring PKC-inhibiting Activity
(§2) Precisely, 10 μl of a sample to be tested for determining its activity is added to 250 μl of a solution comprising 2.5 μmols of magnesium acetate, 50 μg of histone Type IIIS (produced by Sigma Co.), 20 μg of phosphatidylserine, 0.8 μg of diolein, 25 μmols of calcium chloride, 5 μg of a crude enzyme (as partially purified from a rat brain according to the Kikkawa et al's method) and 5 μmols of Tris-HCl buffer (pH 7.5), and incubated therein at 30° C. for 3 minutes.

protein kinase C (PKC) [3] = molecular target: T1, protein kinase C (PKC); assay: as above; assay type: biochemical, rat; details: crude enzyme partially purified from rat brain
T1 construct: PKC-IC50; other: crude enzyme partially purified from rat brain
Description: as §1, §2

protein kinase A (PKA) [4] = molecular target: protein kinase A (PKA) (Bos taurus, UniProt P00517); assay: PKA-inhibiting activity measuring method (Kuo et al.); assay type: biochemical; details: crude enzyme partially purified from calf heart
Description: (2) Method for Measuring PKA-inhibiting Activity
To measure the PKA-inhibiting activity of a protein kinase inhibitor, referred to is the Kuo et al's method (see Biochemistry, 64, 1349, 1969).
Precisely, 10 μl of a sample to be tested for determining its activity is added to 250 μl of a solution comprising 5 μmols of Tris-HCl buffer (pH 6.8), 2.5 μmols of magnesium acetate, 100 μg of histone Type IIS (produced by Sigma Co.), 0.25 nmols of c-AMP and 200 μg of a crude enzyme (as partially purified from a calf heart according to the Kuo et al's method), and incubated therein at 30° C. for 3 minutes.
After the completion of the incubation, 1.25 nmols of [g-^32P]ATP (from 5×10^3 to 10×10^3 cpm/nmol) is added to the system, and phosphorylation reaction is carried out at 30° C. for 3 minutes, and thereafter the reaction is terminated by adding 25% trichloroacetic acid thereto.
The resulting reaction mixture is filtrated through a cellulose acetate membrane (pore size: 0.45 μm) (produced by Toyo Filter Co.), and the membrane is washed four times with 5% trichloroacetic acid, and thereafter the radioactivity of the residue remained on the membrane is measured to be a value of the sample.
On the other hand, the same process as described above is repeated without adding the sample to the system, and the radioactivity is obtained to be a control value.

protein kinase A (PKA) [5] = details: Excerpt from BIO/TECHNOLOGY, 8, 732, 1990; cited from earlier work
protein kinase C (PKC) [6] = details: Excerpt from BIO/TECHNOLOGY, 8, 732, 1990, cited from earlier work
[7] = test system: hair-follicle organ culture; details: British Journal of Dermatology, 133, 5, 686–693, 1995; cited from earlier work

Compound | Relative Degree of Cell Growth, vehicled on the degree of cell growth of 100 in Control ([1]; Concentration 10 μM) | PKA-IC50/PKC-IC50 (protein kinase C (PKC) [2]) | pIC50 (protein kinase C (PKC) [3]) | pIC50 (protein kinase A (PKA) [4]) | pIC50 (protein kinase A (PKA) [5]) | effect on growth of mouse hair-follicle cells (in words) [1] | other results
CCCCCCCCCCCCCCCC(=O)OC(CC(=O)O)C[N+](C)(C)C.[Cl-] (racemic) [Palmitoyl-DL-carnitine Hydrochloride, palmitoyl-DL-carnitine hydrochloride] | 170 | >3 | 4.00 | < 3.52 | – | – | –
CC1CNCCN1S(=O)(=O)c1cccc2cnccc12 (stereo not shown) [Composition H-7, 1-(5-Isoquinolinylsulfonyl)-2-methylpiperazine] | – | – | – | – | 4.89 | – | pIC50 (protein kinase C (PKC) [6]): 4.82; PKA-IC50/PKC-IC50 (protein kinase C (PKC) [6]; ratio): 0.87; effect on hair growth retardation by 12-O-tetragalloyl-phorbol-13-acetate (in words) [7]: release the hair growth-retarding activity
COC(=O)[C@@]1(O)C[C@H]2O[C@]1(C)n1c3ccccc3c3c4c(c5c6ccccc6n2c5c31)C(=O)NC4 [Composition K252a] | – | – | – | – | 7.70 | inhibited the growth of mouse hair-follicle cells | –
CN[C@@H]1C[C@H]2O[C@@](C)([C@@H]1OC)n1c3ccccc3c3c4c(c5c6ccccc6n2c5c31)C(=O)NC4 [Staurosporine] | – | – | – | – | – | inhibited the growth of mouse hair-follicle cells | –
calphostin C | – | >1000 | 7.30 | < 4.30 | – | – | Relative Degree of Cell Growth, vehicled on the degree of cell growth of 100 in Control ([1]; Concentration 0.1 μM): 160
polymyxin B sulfate | 360 | >10 | 5.00 | < 4.00 | – | – | –
